From publication PMC11989212, “Experimental Conditions to Retrieve Intrinsic Cooperativity α Directly from Single Binding Assay Data Exemplified by the Ternary Complex Formation of FKBP12, MAPRE1 and Macrocyclic Molecular Glues” (International Journal of Molecular Sciences, 2025)
“And” between values parts separate entries of the source, which are not always exact repeats. Equal values may be shown once. Read-outs that look alike come from different tables or passages of the source.

Assays:
[1] = test system: FKBP12:R,S-SLF-X:MAPRE1 ternary complex; design: method as in PMID 40059881; settings: TR-FRET proximity assay, reported earlier; cited from earlier work
[2] = target: FKBP12 in the presence of MAPRE1 (Homo sapiens, UniProt P62942+Q15691); experiment: Spectral shift target engagement assay, binding to FKBP12 in the presence of 10 μM MAPRE1 (ternary)
Sequence of FKBP12 in the presence of MAPRE1 (P62942 whole entry, one chain of several): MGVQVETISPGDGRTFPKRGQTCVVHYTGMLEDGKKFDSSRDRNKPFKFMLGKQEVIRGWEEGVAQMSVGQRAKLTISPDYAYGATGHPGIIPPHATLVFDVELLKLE
Text: (§1) Our method of choice is the spectral shift method, which monitors binding events on the target isothermally and in equilibrium via an environment-sensitive near-infrared fluorophore. In the case of target engagement, either the proximity of the ligand towards the dye or structural changes occurring in the target as a result of binding lead to a change in the chemical environment of the fluorophore. Those changes affect the physiochemical properties of the reporter fluorophore and translate into either blue or red shifts (or peak broadening) of emission peaks upon ligand binding, which can be sensitively monitored by simultaneously recording the fluorescence at two wavelengths (i.e., at 650 nm and 670 nm). Calculating the ratio between the two fluorescence channels then allows to monitor subtle emission shifts that occur as a result of target engagement. Affinity measurements can then be performed by recording the spectral shift as a function of ligand concentration.
(§2) Binding studies through FKBP12: To monitor the binding of R,--SLF-11 by the stronger binding FKBP12 in the absence and in the presence of 10 μM MAPRE1 via %Cbound, binary and %Cbound, ternary, respectively, the concentration of reversibly NTA-labeled FKBP12 was limited to [Ctot] = 40 nM. […] In contrast to the experimental setup in the previous two binding experiments with monitoring through the weaker binding protein MAPRE1, where the applied protein concentrations were optimally chosen, this is not the case for the binding experiment through the stronger binder FKBP12. First of all, the applied excess of T with [Ttot] = 10 μM is roughly 20000-fold off of the proposed 100 times KT,1 threshold, which would correspond to 180 mM. Only under such excess conditions of T can the equilibrium of forming TL under the constraint that all ligand L is bound to T be reached to ensure that [Ltot] approaches the “ligand” concentration [TL]. […] If KC,2 is sufficiently high, the 20 nM deviation to correct for the protein concentration could be neglected. However, the resulting calculated value for KC,2 is 0.023 nM, accounting for the cooperativity α = 10,405 and KC,1 = 234 nM as derived by the MAPRE1 experiment. This value is far below the applied protein concentration of [Ctot] = 40 nM and makes it infeasible to estimate KC,2 from the EC50 of the %Cbound, ternary curve. Consequently, the EC50 shifts, meaning the apparent cooperativity, from monitoring the binding by the stronger binding protein C are diverging from the underlying intrinsic cooperativity α. […] The deviation of calculated (254 nM/24.2 nM = 10.5) and measured apparent cooperativity (254 nM/66 nM = 3.8) can be explained by a negative cooperativity induced by the His6-NTA tag of FKBP12. Studies to lower [Ctot] and identify a better position for the spectral shift tag on FKBP12 are ongoing (Figure 6a).
(§3) His-tagged FKBP12 was labeled using the His-Tag Labeling Kit RED-tris-NTA 2nd Generation (MO-L018; NanoTemper Technologies GmbH). The affinity between NTA dye and the His-tag of FKBP12 was determined as 7 nM. MAPRE1 was labeled using the Protein Labeling Kit RED-NHS 2nd Generation (MO-L011; NanoTemper Technologies GmbH). In brief, 10 µM of MAPRE1 was incubated with a 3-fold molar excess of fluorophore for 30 min. The unreacted fluorophore was removed by performing a size exclusion purification (B-column). Collecting the protein fraction yielded 1.8 µM labeled MAPRE1, with a degree of labeling of 0.8, as determined on a Nanodrop.
(§4) A 1:2 dilution series of all compounds (starting from the 10 mM stock concentration) was prepared in pure DMSO. Each concentration was diluted 25-fold with assay buffer (20 mM HEPES, pH 7.4, 150 mM NaCl, 1 mM DTT (all from Carl Roth, Karlsruhe, Germany), and 0.01% Pluronic F-127 (Sigma Aldrich, Taufkirchen, Germany)). Next, 10 µL from each of the prepared ligand dilutions was transferred into an empty well on a Dianthus Microwell Plate (DI-P001A). […]

[3] = target: T1, MAPRE1 in the presence of FKBP12 (Homo sapiens, UniProt P62942+Q15691); experiment: Spectral shift target engagement assay, binding to MAPRE1 in the presence of 10 μM FKBP12 (ternary); settings: for EC50: 5 nM MAPRE1-NHS, 10 μM FKBP12, read-out: EC50 of the %Tbound, ternary curve; for Ratio [Ctot]/KC,1: [Ctot] = 10 μM FKBP12; for 100 × (EC50 %Tbound ternary − 0.5 [Ttot] − KT,2)/KT,2: difference between EC50 of the %Tbound, ternary curve and KT,2; for 100 × (EC50 %Tbound ternary − 0.5 [Ttot] − KT,2)/KT,2 / Intrinsic cooperativity α: [Ttot] = 5 nM; for Intrinsic cooperativity α: from KC,1, KT,1 and EC50 of the %Tbound, ternary curve with the mathematical model, [Ctot] = 10,000 nM; for Kd: ternary Kd, model-based ([CL] at [Ltot] = EC50), read-out: KT,2
T1 construct: His-tag (N)
T1 sequence (P62942 whole entry, one chain of several): as above
Text: as §1
(§5) Binding study through MAPRE1: MAPRE1 was labeled via lysines using an NHS-conjugated dye. The final concentration of MAPRE1NHS (referring to [Ttot]) was 5 nM. Compounds could be titrated up to a concentration of 200 μM (referring to [Ltot]). […] However more accuracy could only be achieved at higher ligand concentrations—ideally at full target saturation. However, this was experimentally infeasible due to assay conditions (i.e., the requirement of maintaining a certain DMSO concentration or avoiding solubility issues of the ligand). Although the determined KT,1 values of binding to MAPRE1 are only approximations, their relative ranking reflects the underlying differences in the affinity of the ligands L to MAPRE1. Performing these experiments in duplicates confirmed the high signal-to-noise ratio, i.e., there was no significant deviation between the two curves, indicating a high accuracy of the interpolated EC50 values. Due to the low [Ttot] = 5 nM, this value coincides with KT,1 (1.8 mM − 0.005 mM/2 ≈ 1.8 mM). […] Consequently, KT,2 corresponds to 173 nM and not 177.5 nM.
as §3
(§6) A 1:2 dilution series of all compounds (starting from the 10 mM stock concentration) was prepared in pure DMSO. Each concentration was diluted 25-fold with assay buffer (20 mM HEPES, pH 7.4, 150 mM NaCl, 1 mM DTT (all from Carl Roth, Karlsruhe, Germany), and 0.01% Pluronic F-127 (Sigma Aldrich, Taufkirchen, Germany)). Next, 10 µL from each of the prepared ligand dilutions was transferred into an empty well on a Dianthus Microwell Plate (DI-P001A). Another 10 µL of 2-fold concentrated labeled protein (either in the absence or the presence of 20 µM counter protein, both in assay buffer then yielded the final assay concentrations. Interaction measurements were prepared in duplicates for each condition. For binary interactions of compounds with MAPRE1, a final target concentration of 5 nM and a highest ligand concentration of 50 µM was prepared. For ternary interactions of compounds and MAPRE1 in the presence of 10 µM unlabeled FKBP12, the highest ligand concentration was increased to 200 µM, the highest concentration achievable while maintaining a constant 2% DMSO concentration. For all interactions measured via FKBP12, the target was prepared at a final concentration of 40 nM, supplemented with 5 nM NTA fluorophore. […]

FKBP12 [4] = target: T2, FKBP12 (Homo sapiens, UniProt P62942); experiment: Spectral shift target engagement assay, binary binding to FKBP12; settings: 40 nM FKBP12-NTA; for EC50: no MAPRE1, read-out: EC50 of the %Cbound, binary curve; for Kd: KC,1 = EC50 − [Ctot]/2
T2 sequence (P62942 whole entry, species assumed): as the sequence (P62942 whole entry, one chain of several) above
Text: as §1, §2, §3, §4

MAPRE1 [5] = target: T3, MAPRE1 (Homo sapiens, UniProt Q15691); design: method as in PMID 40059881; settings: previous NMR studies; read-out: affinity for MAPRE1; cited from earlier work
T3 construct: His-tag (N)
T3 sequence (Q15691 1-268): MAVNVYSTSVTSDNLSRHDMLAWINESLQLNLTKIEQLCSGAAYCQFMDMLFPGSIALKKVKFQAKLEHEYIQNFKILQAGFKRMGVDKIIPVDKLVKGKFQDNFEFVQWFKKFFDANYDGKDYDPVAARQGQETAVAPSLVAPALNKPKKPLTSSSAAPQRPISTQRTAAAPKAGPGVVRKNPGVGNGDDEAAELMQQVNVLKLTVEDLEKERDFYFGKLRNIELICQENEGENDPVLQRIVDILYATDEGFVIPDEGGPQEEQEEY

FKBP12 [6] = target: T2, FKBP12; design: method as in PMID 40059881; settings: TR-FRET competitive binding assay from previous work, read-out: EC50_FKBP12, cited from earlier work
MAPRE1 [7] = target: T3, MAPRE1; experiment: Spectral shift target engagement assay, binary binding to MAPRE1; settings: 5 nM MAPRE1-NHS, interpolated; for EC50: no FKBP12, read-out: EC50 of the %Tbound, binary curve; for Kd: approximation, read-out: Spectral Shift Binary MAPRE1 KT,1
Text: as §1, §5, §3, §6

[8] = target: His-tagged FKBP12, labeled with RED-tris-NTA dye (UniProt P62942); experiment: other fluorescence titration; spectral shift, no compound: 40 nM labeled FKBP12 vs. 10,000 nM MAPRE1
Sequence of His-tagged FKBP12, labeled with RED-tris-NTA dye (P62942 whole entry): as the sequence (P62942 whole entry, one chain of several) above

[9] = 40 nM FKBP12-NTA, 10 μM MAPRE1, read-out: EC50 of the %Cbound, ternary curve (measured)
[10] = calculated with the model using α from MAPRE1 binding, read-out: calc EC50 of the %Cbound, ternary curve

Row | Molecule | TR-FRET Recruitment Assay (%Amax) [1] [%] | EC50 [2, 9] [µM] | EC50 [3] [µM] | Ratio [Ctot]/KC,1 [3] | 100 × (EC50 %Tbound ternary − 0.5 [Ttot] − KT,2)/KT,2 [3] [%] | Intrinsic cooperativity α [3] | Kd [3] | EC50 (FKBP12 [4]) [µM] | Kd (FKBP12 [4]) [µM] | Kd (MAPRE1 [5]) [µM] | EC50 [2, 10] [µM] | EC50 (FKBP12 [6]) [µM] | EC50 (MAPRE1 [7]) [µM] | Kd (MAPRE1 [7]) [µM] | EC50 (FKBP12 [6]; listed as R,R-SLF-1d) [µM] | Kd [8] [µM]
1 | C=C1CCN2C(=O)COc3cccc(c3)C(CCc3ccc(OC)c(OC)c3)OC(=O)C3CCCCN3C(=O)C(=O)C(C)(C)COC(=O)C(C)(C)NC(=O)C2C1 (stereo not drawn) [R,--SLF-10] | 135 | 0.04 | 0.377 | 93 | 1.2 | 5405 | 0.37 µM | 0.128 | 0.108 |  |  |  |  |  |  | 
2 | C=C1CCN2C(=O)COc3cccc(c3)C(CCc3ccc(OC)c(OC)c3)OC(=O)C3CCCCN3C(=O)C(=O)C(C)(C)COC(=O)C3(CC3)NC(=O)C2C1 (stereo not drawn) [R,--SLF-11] | 350 | 0.066 | 0.18 | 41 | 2.6 | 10,405 | 0.173 µM | 0.254 | 0.234 |  |  |  |  |  |  | 
3 | C=C1CCN2C(=O)COc3cccc(c3)C(CCc3ccc(OC)c(OC)c3)OC(=O)C3CCCCN3C(=O)C(=O)C(C)(C)COC(=O)C(C)NC(=O)C2C1 (stereo not drawn) [R,S-SLF-1a] | 51 | 0.045 | 1.03 | 476 | 0.3 | 1951 | 1.02 µM | 0.041 | 0.021 | > 250 | 0.02 | 0.23 |  |  |  | 
4 | C=C1CCN2C(=O)COc3cccc(c3)C(CCc3ccc(OC)c(OC)c3)OC(=O)C3CCCCN3C(=O)C(=O)C(C)(C)COC(=O)C(CC)NC(=O)C2C1 (stereo not drawn) [R,S-SLF-3] | 93 | 0.049 | 0.827 | 152 | 0.8 | 2200 | 0.818 µM | 0.086 | 0.066 |  | 0.025 |  | > 200 | > 200 |  | 
5 | C=C1CCN2C(=O)COc3cccc(c3)C(CCc3ccc(OC)c(OC)c3)OC(=O)C3CCCCN3C(=O)C(=O)C(C)(C)COC(=O)C(CO)NC(=O)C2C1 (stereo not drawn) [R,S-SLF-6] | 255 | 0.024 | 0.114 | 222 | 0 | 4484 | ~0.111 µM and 0.111 µM | 0.065 | 0.045 |  | 0.021 |  | > 200 | > 200 |  | 
6 | C=C1CCN2C(=O)COc3cccc(c3)C(CCc3ccc(OC)c(OC)c3)OC(=O)C3CCCCN3C(=O)C(=O)C(C)(C)COC(=O)C(C(F)(F)F)NC(=O)C2C1 (stereo not drawn) [R,S-SLF-8] | 27 | 0.065 | 1.07 | 92 | 1.1 | 1509 | 1.06 µM | 0.129 | 0.109 |  | 0.031 |  | > 200 | > 200 |  | 
7 | C=C1CCN2C(=O)COc3cccc(c3)C(CCc3ccc(OC)c(OC)c3)OC(=O)C3CCCCN3C(=O)C(=O)C(C)(C)COC(=O)C(CCOC)NC(=O)C2C1 (stereo not drawn) [R,S-SLF-9] | 51 |  |  |  |  |  |  |  |  |  |  |  |  |  |  | 
8 | C=C1CCN2C(=O)COc3cccc(c3)C(CCc3ccc(OC)c(OC)c3)OC(=O)C3CCCCN3C(=O)C(=O)C(C)(C)COC(=O)C(C)NC(=O)C2C1 (stereo not drawn) [S,S-SLF-1d] | 0 | 0.029 | > 1400 | 1428 and 1429 |  | No positive cooperativity |  | 0.027 | 0.007 |  |  |  | > 200 | > 200 | 0.72 | 
9 | unlabeled MAPRE1 (from UniProt Q15691 1-268) (natural protein) |  |  |  |  |  |  |  |  |  |  |  |  |  |  |  | > 100
